Results as given in ChEMBL document CHEMBL3351224 (ACS Med Chem Lett, 2014).

How the values were obtained:
[1] = target: T1, Cysteinyl leukotriene receptor 1 (Homo sapiens, UniProt Q9Y271); assay: Antagonist activity at human CysLT1 receptor expressed in CHO cells assessed as inhibition of LTD4-inudced intracellular calcium influx preincubated for 30 mins before LTD4 addition by Fura2-AM assay; assay type: functional, cell-based
T1 sequence (Q9Y271 whole entry): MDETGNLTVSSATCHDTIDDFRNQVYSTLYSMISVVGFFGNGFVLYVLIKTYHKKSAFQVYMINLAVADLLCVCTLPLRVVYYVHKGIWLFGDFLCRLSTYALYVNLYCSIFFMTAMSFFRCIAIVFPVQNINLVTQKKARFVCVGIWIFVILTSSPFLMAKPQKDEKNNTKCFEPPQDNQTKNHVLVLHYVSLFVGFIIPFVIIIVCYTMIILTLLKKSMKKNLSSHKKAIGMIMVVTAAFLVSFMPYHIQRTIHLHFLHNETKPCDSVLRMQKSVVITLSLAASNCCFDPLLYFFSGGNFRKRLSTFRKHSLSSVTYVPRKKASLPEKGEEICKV

[2] = target: T2, Cysteinyl leukotriene receptor 2 (Homo sapiens) (UniProt Q9NS75); assay: Antagonist activity at human CysLT2 receptor expressed in HEK293 cells assessed as inhibition of LTD4-inudced intracellular calcium influx preincubated at 10 uM for 30 mins before LTD4 addition by Fura2-AM assay; assay type: functional, cell-based
T2 sequence (whole entry): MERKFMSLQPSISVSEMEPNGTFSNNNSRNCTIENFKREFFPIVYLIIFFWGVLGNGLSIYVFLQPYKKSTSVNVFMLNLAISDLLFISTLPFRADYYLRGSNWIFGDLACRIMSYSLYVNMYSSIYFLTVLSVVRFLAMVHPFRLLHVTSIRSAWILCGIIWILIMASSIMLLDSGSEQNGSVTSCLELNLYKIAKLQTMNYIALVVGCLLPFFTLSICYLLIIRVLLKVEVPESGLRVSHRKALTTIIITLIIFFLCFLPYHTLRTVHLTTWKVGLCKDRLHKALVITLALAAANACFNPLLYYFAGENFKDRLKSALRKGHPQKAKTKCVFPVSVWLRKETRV

[3] = target: T3, Cysteinyl leukotriene receptor 2 (Homo sapiens, UniProt Q9NS75); assay: Antagonist activity at human CysLT2 receptor expressed in HEK293 cells assessed as inhibition of LTD4-inudced intracellular calcium influx preincubated for 30 mins before LTD4 addition by Fura2-AM assay; assay type: functional, cell-based
T3 sequence (Q9NS75 whole entry): T2 sequence (whole entry)

[4] = AUC in rat at 30 mg/kg, po; assay type: ADME, organism-based; parameters: dose 30 mg/kg, route oral; details: plasma
[5] = Oral bioavailability in rat at 30 mg/kg; assay type: ADME, organism-based; details: in vivo
[6] = Clearance in rat at 1 mg/kg, iv; assay type: ADME, organism-based; parameters: dose 1 mg/kg, route intravenous; details: in vivo
[7] = Half life in rat at 1 mg/kg, iv; assay type: ADME, organism-based; parameters: dose 1 mg/kg, route intravenous; details: in vivo

O=C(Nc1ccc2c(c1)OC(C(=O)O)CN2)c1ccc(OCCCCc2ccccc2)cc1 (configuration not stated)
IC50 [1]: 4600 nM
inhibition [2]: 36%

O=C(Nc1ccc2c(c1)NCC(C(=O)O)O2)c1ccc(OCCCCc2ccccc2)cc1 (configuration not stated)
IC50 [1]: 840 nM
inhibition [2]: 25%

CC(=O)N1CC(C(=O)O)Oc2c(NC(=O)c3ccc(OCCCCc4ccccc4)cc3)cccc21 (configuration not stated)
IC50 [1]: 13 nM
IC50 [3]: 3600 nM

O=C(O)CCCN1CC(C(=O)O)Oc2c(NC(=O)c3ccc(OCCCCOc4ccccc4)cc3)cccc21 (configuration not stated)
IC50 [1]: 32 nM
IC50 [3]: 17 nM

O=C(O)CCCCN1CC(C(=O)O)Oc2c(NC(=O)c3ccc(OCCCCc4ccccc4)cc3)cccc21 (configuration not stated)
IC50 [1]: 44 nM
IC50 [3]: 170 nM

O=C(Nc1cccc2c1OC(C(=O)O)CN2)c1ccc(OCCCCc2ccccc2)cc1 (configuration not stated)
IC50 [1]: 54 nM
IC50 [3]: 4600 nM

O=C(O)CCCCC(=O)N1CC(C(=O)O)Oc2c(NC(=O)c3ccc(OCCCCc4ccccc4)cc3)cccc21 (configuration not stated)
IC50 [1]: 12 nM
IC50 [3]: 890 nM

O=C(O)CCCN1CC(C(=O)O)Oc2c(NC(=O)c3ccc(OCCCOc4ccccc4)cc3)cccc21 (configuration not stated)
IC50 [1]: 290 nM
IC50 [3]: 16 nM

CCC(=O)N1CC(C(=O)O)Oc2c(NC(=O)c3ccc(OCCCCc4ccccc4)cc3)cccc21 (configuration not stated)
IC50 [1]: 150 nM
IC50 [3]: 5200 nM

O=C(O)CCCN1CC(C(=O)O)Oc2c(NC(=O)c3ccc(OCCCc4ccccc4)cc3)cccc21 (configuration not stated)
IC50 [1]: 1300 nM
IC50 [3]: 68 nM

O=C(O)CCC(=O)N1CC(C(=O)O)Oc2c(NC(=O)c3ccc(OCCCCc4ccccc4)cc3)cccc21 (configuration not stated)
IC50 [1]: 1.4 nM
IC50 [3]: 890 nM

CCCCC/C=C\C\C=C/C=C/C=C/[C@@H](Sc1ccc(C(=O)O)cc1)[C@@H](O)CCCC(=O)O
IC50 [1]: 440 nM
IC50 [3]: 300 nM

O=C(O)CCCN1CC(C(=O)O)Oc2c(NC(=O)c3ccc(OCCCCCc4ccccc4)cc3)cccc21 (configuration not stated)
IC50 [1]: 120 nM
IC50 [3]: 0.62 nM

O=C(O)CCCCCN1CC(C(=O)O)Oc2c(NC(=O)c3ccc(OCCCCc4ccccc4)cc3)cccc21 (configuration not stated)
IC50 [1]: 130 nM
IC50 [3]: 290 nM

CCN(CC)C(=O)/C=C(\C)c1ccc2oc(C(=O)c3ccc(C#N)cc3)c(NC(=O)/C(C#N)=C(/C)O)c2c1
IC50 [1]: 9700 nM
IC50 [3]: 7700 nM

CCCC(=O)N1CC(C(=O)O)Oc2c(NC(=O)c3ccc(OCCCCc4ccccc4)cc3)cccc21 (configuration not stated)
IC50 [1]: 300 nM
IC50 [3]: 3700 nM

O=C(O)CCCN1CC(C(=O)O)Oc2c(NC(=O)c3ccc(OCCOc4ccccc4)cc3)cccc21 (configuration not stated)
IC50 [1]: 3000 nM
IC50 [3]: 1500 nM

O=C(O)CCCC(=O)N1CC(C(=O)O)Oc2c(NC(=O)c3ccc(OCCCCc4ccccc4)cc3)cccc21 (configuration not stated)
IC50 [1]: < 1 nM
IC50 [3]: 1800 nM

O=C(O)c1ccc(OCCCc2ccc(OCCCCOc3ccccc3)cc2)c(C(=O)NC2CCCC(C(=O)O)C2)c1 (configuration not stated)
IC50 [1]: > 2500 nM
IC50 [3]: 53 nM

O=C(O)CCCN1CC(C(=O)O)Oc2c(NC(=O)c3ccc(OCCCCc4ccccc4)cc3)cccc21 (configuration not stated)
AUC [4]: 1600 ng·h/mL
bioavailability [5]: 1.5%
clearance [6]: 4.7 mL/min/kg
half-life [7]: 3.4 h
